The record followed here is PMC12435834, “The GLYT1 inhibitor bitopertin mitigates erythroid PPIX production and liver disease in erythroid protoporphyria” (The Journal of Clinical Investigation, 2025).

In assay [1] the target is T1, GLYT1 (Mus musculus, UniProt P28571).
T1 construct: gene Slc6a9
T1 sequence (P28571 1-692): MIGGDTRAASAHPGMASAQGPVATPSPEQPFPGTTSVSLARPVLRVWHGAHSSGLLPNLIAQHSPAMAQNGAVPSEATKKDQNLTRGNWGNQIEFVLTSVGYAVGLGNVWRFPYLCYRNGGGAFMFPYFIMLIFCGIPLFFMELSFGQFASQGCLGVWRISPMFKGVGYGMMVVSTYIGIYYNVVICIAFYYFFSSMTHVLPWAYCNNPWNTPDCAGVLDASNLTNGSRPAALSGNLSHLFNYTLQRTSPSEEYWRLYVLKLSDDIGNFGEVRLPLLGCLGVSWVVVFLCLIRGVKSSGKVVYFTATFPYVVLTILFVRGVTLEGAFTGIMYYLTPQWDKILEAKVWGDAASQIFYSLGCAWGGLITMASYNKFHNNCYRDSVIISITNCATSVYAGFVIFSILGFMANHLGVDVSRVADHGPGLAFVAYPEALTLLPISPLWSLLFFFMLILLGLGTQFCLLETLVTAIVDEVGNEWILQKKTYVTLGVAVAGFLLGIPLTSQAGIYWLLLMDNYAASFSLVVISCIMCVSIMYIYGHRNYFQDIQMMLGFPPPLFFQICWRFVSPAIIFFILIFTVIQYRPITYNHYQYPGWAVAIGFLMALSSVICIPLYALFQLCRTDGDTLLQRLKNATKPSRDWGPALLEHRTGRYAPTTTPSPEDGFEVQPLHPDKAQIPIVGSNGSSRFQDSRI
Put plainly: ex vivo 3H-glycine uptake by peripheral blood cells of orally dosed mice vs free plasma concentration.

The target in assay [2] is T2, GLYT1 (Rattus norvegicus, UniProt P28572).
T2 construct: gene Slc6a9
T2 sequence (P28572 1-638): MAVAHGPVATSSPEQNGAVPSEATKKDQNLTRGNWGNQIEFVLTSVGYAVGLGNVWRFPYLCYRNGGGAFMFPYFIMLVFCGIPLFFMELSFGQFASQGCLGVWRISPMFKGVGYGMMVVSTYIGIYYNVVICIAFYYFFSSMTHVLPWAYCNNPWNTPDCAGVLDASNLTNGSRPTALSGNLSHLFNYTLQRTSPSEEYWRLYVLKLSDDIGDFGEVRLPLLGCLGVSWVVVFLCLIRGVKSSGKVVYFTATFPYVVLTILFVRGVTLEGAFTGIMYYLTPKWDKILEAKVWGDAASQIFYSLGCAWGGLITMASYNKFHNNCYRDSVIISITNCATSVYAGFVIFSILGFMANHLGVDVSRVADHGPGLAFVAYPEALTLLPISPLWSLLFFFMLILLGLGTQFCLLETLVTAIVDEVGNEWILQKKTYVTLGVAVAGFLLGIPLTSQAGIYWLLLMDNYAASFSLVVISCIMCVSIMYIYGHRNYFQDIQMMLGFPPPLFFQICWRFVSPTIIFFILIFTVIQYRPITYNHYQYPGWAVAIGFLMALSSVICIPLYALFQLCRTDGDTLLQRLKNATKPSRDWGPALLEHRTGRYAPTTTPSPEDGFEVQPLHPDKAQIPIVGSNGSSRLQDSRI
Put plainly: ex vivo 3H-glycine uptake by peripheral blood cells of orally dosed rats vs free plasma concentration.

Usually EC50 stands for the concentration giving half of the maximal effect. Higher therefore signals a need for much substance.

On to `C[C@H](Oc1ccc(S(C)(=O)=O)cc1C(=O)N1CCN(c2ncc(C(F)(F)F)cc2F)CC1)C(F)(F)F` [bitopertin, [4-(3-fluoro-5-trifluoromethylpyridin-2-yl)piperazin-1-yl][5-methanesulfonyl-2-((S)-2,2,2-trifluoro-1-methylethoxy)phenyl]methanone], for which the concentration for a half-maximal effect (EC50) came to 1.2 nM in assay [1] and 2 nM in assay [2].
